Test results: US20100166765A1, “BENZOQUINAZOLINE DERIVATIVES” (priority 2005, published 2010)

C#CCOc1ccc2nc(C(=O)c3ccc(C(C)(C)C)cc3)nc(-c3ccc(C(C)C)cc3)c2c1 [Example 1, (4-tert-Butyl-phenyl)-[4-(4-isopropyl-phenyl)-6-propargyloxy-quinazolin-2-yl]-methanone]
melting point: 166 to 168 °C

C#CCOc1ccc2nc(C(=O)c3ccc(F)cc3)nc(-c3ccc(C(C)C)cc3)c2c1 [Example 6, (4-Fluoro-phenyl)-[4-(4-isopropyl-phenyl)-6-propargyloxy-quinazolin-2-yl]-methanone]
melting point: 124 to 126 °C

C#CCOc1ccc2nc(C(=O)c3cccc(F)c3)nc(-c3ccc(C(C)C)cc3)c2c1 [Example 7, (3-Fluoro-phenyl)-[4-(4-isopropyl-phenyl)-6-propargyloxy-quinazolin-2-yl]-methanone]
melting point: 118 to 120 °C

C#CCOc1ccc2nc(C(=O)c3cccc(Cl)c3)nc(-c3ccc(C(C)C)cc3)c2c1 [Example 8, (3-Chloro-phenyl)-[4-(4-isopropyl-phenyl)-6-propargyloxy-quinazolin-2-yl]-methanone]
melting point: 128 to 130 °C

C#CCOc1ccc2nc(C(=O)c3ccc(Cl)cc3)nc(-c3ccc(C(C)C)cc3)c2c1 [Example 9, (4-Chloro-phenyl)-[4-(4-isopropyl-phenyl)-6-propargyloxy-quinazolin-2-yl]-methanone]
melting point: 108 to 110 °C

C#CCOc1ccc2nc(C(=O)c3ccc(F)cc3)nc(-c3ccc(C(C)(C)C)cc3)c2c1 [Example 10, (4-Fluoro-phenyl)-[4-(4-tert.butyl-phenyl)-6-propargyloxy-quinazolin-2-yl]-methanone]
melting point: 105 to 107 °C

C#CCOc1ccc2nc(C(=O)c3cccc(F)c3)nc(-c3ccc(C(C)(C)C)cc3)c2c1 [Example 11, (3-Fluoro-phenyl)-[4-(4-tert.butyl-phenyl)-6-propargyloxy-quinazolin-2-yl]-methanone]
melting point: 156 to 158 °C

C#CCOc1ccc2nc(C(=O)c3cccc(Br)c3)nc(-c3ccc(C(C)C)cc3)c2c1 [Example 12, (3-Bromo-phenyl)-[4-(4-isopropyl-phenyl)-6-propargyloxy-quinazolin-2-yl]-methanone]
melting point: 132 °C

C#CCOc1ccc2nc(C(=O)c3ccc(Br)cc3)nc(-c3ccc(C(C)C)cc3)c2c1 [Example 13, (4-Bromo-phenyl)-[4-(4-isopropyl-phenyl)-6-propargyloxy-quinazolin-2-yl]-methanone]
melting point: 97 to 100 °C

C#CCOc1ccc2nc(C(=O)c3ccc(C)cc3)nc(-c3ccc(C(C)C)cc3)c2c1 [Example 14, (4-Methyl-phenyl)-[4-(4-isopropyl-phenyl)-6-propargyloxy-quinazolin-2-yl]-methanone]
melting point: 130 to 132 °C

C#CCOc1ccc2nc(C(=O)c3ccc(C(C)C)cc3)nc(-c3ccc(C(C)C)cc3)c2c1 [Example 15, (4-Isopropyl-phenyl)-[4-(4-isopropyl-phenyl)-6-propargyloxy-quinazolin-2-yl]-methanone]
melting point: 132 to 134 °C

C#CCOc1ccc2nc(C(=O)c3ccc(CC)cc3)nc(-c3ccc(C(C)C)cc3)c2c1 [Example 16, (4-Ethyl-phenyl)-[4-(4-isopropyl-phenyl)-6-propargyloxy-quinazolin-2-yl]-methanone]
melting point: 108 to 111 °C

C#CCOc1ccc2nc(C(=O)c3ccc(CCC)cc3)nc(-c3ccc(C(C)C)cc3)c2c1 [Example 16a, (4-Propyl-phenyl)-[4-(4-isopropyl-phenyl)-6-propargyloxy-quinazolin-2-yl]-methanone]
melting point: 140 to 142 °C

C#CCOc1ccc2nc(C(=O)c3ccc(C#N)cc3)nc(-c3ccc(C(C)C)cc3)c2c1 [Example 17, (4-Cyano-phenyl)-[4-(4-isopropyl-phenyl)-6-propargyloxy-quinazolin-2-yl]-methanone]
melting point: 130 to 132 °C

C#CCOc1ccc2nc(C(=O)c3ccc(SC)cc3)nc(-c3ccc(C(C)C)cc3)c2c1 [Example 18, (4-Methylthio-phenyl)-[4-(4-isopropyl-phenyl)-6-propargyloxy-quinazolin-2-yl]-methanone]
melting point: 161 to 164 °C

C#CCOc1ccc2nc(C(=O)c3ccc(S(C)(=O)=O)cc3)nc(-c3ccc(C(C)C)cc3)c2c1 [Example 19, (4-Methansulfonyl-phenyl)-[4-(4-isopropyl-phenyl)-6-propargyloxy-quinazolin-2-yl]-methanone]
melting point: 181 to 184 °C

C#CCOc1ccc2nc(C(=O)c3ccc(N(C)C)cc3)nc(-c3ccc(C(C)C)cc3)c2c1 [Example 20, (4-Dimethylamino-phenyl)-[4-(4-isopropyl-phenyl)-6-propargyloxy-quinazolin-2-yl]-methanone]
melting point: 148 to 151 °C

C#CCOc1ccc2nc(C(=O)c3ccc(OCC)cc3)nc(-c3ccc(C(C)C)cc3)c2c1 [Example 21, (4-Ethoxy-phenyl)-[4-(4-isopropyl-phenyl)-6-propargyloxy-quinazolin-2-yl]-methanone]
melting point: 117 to 119 °C

C#CCOc1ccc2nc(C(=O)c3ccc(C(=O)OC)cc3)nc(-c3ccc(C(C)C)cc3)c2c1 [Example 22, 4-[4-(4-Isopropyl-phenyl)-6-propargyloxy-quinazoline-2-carbonyl]-benzoic acid methyl ester]
melting point: 108 to 110 °C

C#CCOc1ccc2nc(C(=O)c3ccc(N(C)C)cc3)nc(-c3ccc(C(C)(C)C)cc3)c2c1 [Example 23, (4-Dimethylamino-phenyl)-[4-(4-tert.butyl-phenyl)-6-propargyloxy-quinazolin-2-yl]-methanone]
melting point: 150 to 152 °C

C#CCOc1ccc2nc(C(=O)c3ccc(N(C)C)cc3)nc(-c3ccc(C4CC4)cc3)c2c1 [Example 24, (4-Dimethylamino-phenyl)-[4-(4-cyclopropyl-phenyl)-6-propargyloxy-quinazolin-2-yl]-methanone]
melting point: 169 to 172 °C

C#CCOc1ccc2nc(C(=O)c3ccc(C(=O)OCC)cc3)nc(-c3ccc(C(C)C)cc3)c2c1 [Example 25, 4-[4-(4-Isopropyl-phenyl)-6-propargyloxy-quinazoline-2-carbonyl]-benzoic acid ethyl ester]
melting point: 132 to 134 °C

C#CCOc1ccc2nc(C(=O)c3ccc(OC)cc3)nc(-c3ccc(C(C)(C)C)cc3)c2c1 [Example 26, (4-Methoxy-phenyl)-[4-(4-tert.butyl-phenyl)-6-propargyloxy-quinazolin-2-yl]-methanone]
melting point: 150 to 152 °C

C#CCOc1ccc2nc(C(=O)c3ccc(OC)cc3)nc(-c3ccc(C4CC4)cc3)c2c1 [Example 27]
melting point: 147 to 149 °C

C#CCOc1ccc2nc(C(=O)c3ccc(OC)c(OCC)c3)nc(-c3ccc(C(C)C)cc3)c2c1 [Example 28, (3-Ethoxy-4-methoxy-phenyl)-[4-(4-isopropyl-phenyl)-6-propargyloxy-quinazolin-2-yl]-methanone]
melting point: 148 °C

C#CCOc1ccc2nc(C(=O)c3ccc(OC(C)(C)C)cc3)nc(-c3ccc(C(C)C)cc3)c2c1 [Example 29, (4-tert.Butyloxy-phenyl)-[4-(4-isopropyl-phenyl)-6-propargyloxy-quinazolin-2-yl]-methanone]
melting point: 130 to 132 °C

C#CCOc1ccc2nc(C(=O)c3ccc(O)cc3)nc(-c3ccc(C(C)C)cc3)c2c1 [Example 30, (4-Hydroxy)-[4-(4-isopropyl-phenyl)-6-propargyloxy-quinazolin-2-yl]-methanone]
melting point: 185 to 187 °C

C#CCOc1ccc2nc(C(=O)c3ccc(OCCCC)cc3)nc(-c3ccc(C(C)C)cc3)c2c1 [Example 31, (4-Butyloxy)-[4-(4-isopropyl-phenyl)-6-propargyloxy-quinazolin-2-yl]-methanone]
melting point: 91 to 93 °C

C#CCOc1ccc2nc(C(=O)c3ccco3)nc(-c3ccc(C(C)C)cc3)c2c1 [Example 32, Furan-2-yl-[4-(4-isopropyl-phenyl)-6-propargyloxy-quinazolin-2-yl]-methanone]
melting point: 150 to 151 °C

C#CCOc1ccc2nc(C(=O)c3ccoc3)nc(-c3ccc(C(C)(C)C)cc3)c2c1 [Example 33, Furan-3-yl-[4-(4-tert.butyl-phenyl)-6-propargyloxy-quinazolin-2-yl]-methanone]
melting point: 170 °C

C#CCOc1ccc2nc(C(=O)c3ccoc3)nc(-c3ccc(C(C)C)cc3)c2c1 [Example 34, Furan-3-yl-[4-(4-isopropyl-phenyl)-6-propargyloxy-quinazolin-2-yl]-methanone]
melting point: 133 °C

C#CCOc1ccc2nc(C(=O)c3cccs3)nc(-c3ccc(C(C)C)cc3)c2c1 [Example 35, Thiophen-2-yl-[4-(4-isopropyl-phenyl)-6-propargyloxy-quinazolin-2-yl]-methanone]
melting point: 113 to 117 °C

C#CCOc1ccc2nc(C(=O)c3sccc3C)nc(-c3ccc(C(C)C)cc3)c2c1 [Example 36]
melting point: 130 to 132 °C

C#CCOc1ccc2nc(C(=O)c3cc4ccccc4s3)nc(-c3ccc(C(C)C)cc3)c2c1 [Example 37, Benz[b]thiophen-2-yl-[4-(4-isopropyl-phenyl)-6-propargyloxy-quinazolin-2-yl]-methanone]
melting point: 167 to 169 °C

C#CCOc1ccc2nc(C(=O)c3cccn3C)nc(-c3ccc(C(C)C)cc3)c2c1 [Example 39, (1-Methyl-1H-pyrrol)-2-yl-[4-(4-isopropyl-phenyl)-6-propargyloxy-quinazolin-2-yl]-methanone]
melting point: 126 to 128 °C
